From paper PMC7384330 (Neuropharmacology, 2018)
Entries after “also recorded” stand apart in the source; their conditions may differ. Read-outs that look alike come from different tables or passages of the source.

Legend:
[1] = biological target: T1, human oxytocin receptor (OXTR) (Homo sapiens, UniProt P30559); test: Fluorescence-based intracellular calcium mobilization assay; type: cell-based
T1 sequence (P30559 1-389): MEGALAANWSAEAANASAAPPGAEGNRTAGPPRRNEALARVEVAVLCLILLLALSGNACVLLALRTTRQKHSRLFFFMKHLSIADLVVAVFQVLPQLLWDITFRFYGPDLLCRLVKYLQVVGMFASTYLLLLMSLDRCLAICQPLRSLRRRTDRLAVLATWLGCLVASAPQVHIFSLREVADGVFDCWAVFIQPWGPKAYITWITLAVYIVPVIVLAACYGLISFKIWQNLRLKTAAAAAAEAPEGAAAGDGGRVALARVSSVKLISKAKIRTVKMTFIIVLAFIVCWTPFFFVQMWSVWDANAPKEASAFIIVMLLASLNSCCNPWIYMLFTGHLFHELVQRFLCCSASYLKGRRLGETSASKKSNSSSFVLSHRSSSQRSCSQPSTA

[2] = biological target: T2, OXTR (β-arrestin recruitment) (Homo sapiens, UniProt P30559); type: cell-based
T2 sequence (P30559 1-389): T1 sequence (P30559 1-389)

[3] = biological target: T2, OXTR (β-arrestin recruitment); test: PathHunter eXpress β-Arrestin GPCR Kit, enzyme fragment complementation assay; type: cell-based
human OXTR = biological target: T3, human OXTR (Homo sapiens, UniProt P30559); test: IP3 accumulation assay; type: cell-based
T3 sequence (P30559 1-389): T1 sequence (P30559 1-389)

[4] = biological target: T4, human Avpr1b vasopressin receptor (Homo sapiens, UniProt P47901); test: Calcium mobilization assay, CHO-V1b; type: cell-based
T4 sequence (P47901 1-424): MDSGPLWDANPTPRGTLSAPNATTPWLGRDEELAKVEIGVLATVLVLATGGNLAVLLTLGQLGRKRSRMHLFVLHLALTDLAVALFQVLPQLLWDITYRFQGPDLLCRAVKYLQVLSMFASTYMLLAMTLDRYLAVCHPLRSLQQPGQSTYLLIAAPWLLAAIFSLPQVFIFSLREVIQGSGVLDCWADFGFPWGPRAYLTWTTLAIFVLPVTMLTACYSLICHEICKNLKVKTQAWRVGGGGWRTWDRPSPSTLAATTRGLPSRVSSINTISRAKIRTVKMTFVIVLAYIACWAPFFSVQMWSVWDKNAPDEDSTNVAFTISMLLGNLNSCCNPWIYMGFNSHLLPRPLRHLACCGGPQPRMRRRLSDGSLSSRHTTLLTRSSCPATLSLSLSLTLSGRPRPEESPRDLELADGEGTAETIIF

[5] = tested on: human Avpr1a vasopressin receptor; test: Calcium mobilization assay, CHO-V1a; type: cell-based; settings: Supplemental Fig. 1
[6] = tested on: human Avpr2 vasopressin receptor; test: Calcium mobilization assay, CHO-V2; type: cell-based; settings: Supplemental Fig. 1
wild-type CHO cells = test: Calcium response in wild-type CHO cells; type: cell-based; settings: Supplemental Fig. 2
[7] = biological target: T5, muscarinic acetylcholine receptor M2 (Homo sapiens, UniProt P08172); test: NIMH PDSP GPCR receptor binding screen, M2
T5 sequence (P08172 1-466): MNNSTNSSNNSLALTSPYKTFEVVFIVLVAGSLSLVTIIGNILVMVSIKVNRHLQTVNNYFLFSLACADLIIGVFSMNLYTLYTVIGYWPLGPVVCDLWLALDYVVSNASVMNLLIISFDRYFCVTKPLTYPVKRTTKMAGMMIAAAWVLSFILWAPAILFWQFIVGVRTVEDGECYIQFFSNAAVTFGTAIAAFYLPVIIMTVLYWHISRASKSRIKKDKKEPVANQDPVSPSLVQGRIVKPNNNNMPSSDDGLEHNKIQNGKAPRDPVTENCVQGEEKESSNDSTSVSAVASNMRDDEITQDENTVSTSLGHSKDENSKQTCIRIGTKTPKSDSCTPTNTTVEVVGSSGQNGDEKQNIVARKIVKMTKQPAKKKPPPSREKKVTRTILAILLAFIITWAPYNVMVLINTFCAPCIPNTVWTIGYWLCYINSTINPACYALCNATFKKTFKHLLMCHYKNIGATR

[8] = biological target: muscarinic acetylcholine receptor M3 (Homo sapiens, UniProt P20309); test: NIMH PDSP GPCR receptor binding screen, M3
[9] = biological target: T6, muscarinic acetylcholine receptor M4 (Homo sapiens, UniProt P08173); test: NIMH PDSP GPCR receptor binding screen, M4
T6 sequence (P08173 1-479): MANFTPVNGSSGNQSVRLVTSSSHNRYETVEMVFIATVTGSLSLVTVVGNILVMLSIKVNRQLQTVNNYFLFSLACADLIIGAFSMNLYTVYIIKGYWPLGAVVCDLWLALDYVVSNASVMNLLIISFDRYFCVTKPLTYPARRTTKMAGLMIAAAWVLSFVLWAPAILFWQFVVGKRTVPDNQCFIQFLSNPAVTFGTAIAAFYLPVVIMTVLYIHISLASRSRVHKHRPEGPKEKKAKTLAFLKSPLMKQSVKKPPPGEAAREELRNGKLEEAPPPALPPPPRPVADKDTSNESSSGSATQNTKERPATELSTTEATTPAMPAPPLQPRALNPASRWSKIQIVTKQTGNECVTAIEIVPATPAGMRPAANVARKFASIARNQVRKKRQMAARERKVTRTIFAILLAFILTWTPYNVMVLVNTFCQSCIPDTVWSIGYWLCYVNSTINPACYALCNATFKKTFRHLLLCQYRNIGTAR

other human receptors = test: NIMH PDSP GPCR receptor binding screen, other receptors; settings: complete set of GPCRs available through NIMH PDSP
BALB/cByJ mice [10] = test: Three-chamber social choice test after subchronic regimen; type: in vivo, mouse
BALB/cByJ mice [11] = test: Marble-burying assay, BALB/cByJ; type: in vivo, mouse; settings: for digging responses in marble-burying assay, oxytocin metabolites: acute IP, Supplemental Fig. 3B, C
OXTR [12] = settings: ref Pitt et al., 2004, cited from earlier work
OXTR [13] = settings: ref Pitt et al., 2004, cited from earlier work; remark: listed apart in the source
[14] = biological target: Avpr1a vasopressin receptor; settings: ref Frantz et al., 2010, cited from earlier work
[15] = biological target: T7, muscarinic acetylcholine receptor M5 (Homo sapiens, UniProt P08912); test: NIMH PDSP GPCR receptor binding screen, M5
T7 sequence (P08912 1-532): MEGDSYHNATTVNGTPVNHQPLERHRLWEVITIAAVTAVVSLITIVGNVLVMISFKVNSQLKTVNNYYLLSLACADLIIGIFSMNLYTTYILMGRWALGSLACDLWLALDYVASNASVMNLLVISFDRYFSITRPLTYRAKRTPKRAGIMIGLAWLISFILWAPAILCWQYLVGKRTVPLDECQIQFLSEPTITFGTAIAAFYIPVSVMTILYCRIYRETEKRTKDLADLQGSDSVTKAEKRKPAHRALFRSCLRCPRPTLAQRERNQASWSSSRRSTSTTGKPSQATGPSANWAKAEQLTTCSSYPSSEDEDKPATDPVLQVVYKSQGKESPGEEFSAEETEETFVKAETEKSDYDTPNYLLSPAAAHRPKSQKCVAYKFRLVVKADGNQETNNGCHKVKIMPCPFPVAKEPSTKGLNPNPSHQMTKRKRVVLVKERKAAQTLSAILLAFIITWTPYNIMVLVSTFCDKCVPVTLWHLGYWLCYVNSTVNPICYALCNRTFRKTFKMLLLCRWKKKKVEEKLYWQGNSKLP

rodents = settings: ref Ring and colleagues 2006, 2010; cited from earlier work
rats [16] = settings: ref de Wied et al., 1987; cited from earlier work
BALB/cByJ mice [17] = test: Open field test for activity and exploration; type: in vivo, mouse
rats [18] = settings: dependent on dose; ref Popik et al., 1996; cited from earlier work

muscarinic acetylcholine receptor M3, sequence (P20309 whole entry): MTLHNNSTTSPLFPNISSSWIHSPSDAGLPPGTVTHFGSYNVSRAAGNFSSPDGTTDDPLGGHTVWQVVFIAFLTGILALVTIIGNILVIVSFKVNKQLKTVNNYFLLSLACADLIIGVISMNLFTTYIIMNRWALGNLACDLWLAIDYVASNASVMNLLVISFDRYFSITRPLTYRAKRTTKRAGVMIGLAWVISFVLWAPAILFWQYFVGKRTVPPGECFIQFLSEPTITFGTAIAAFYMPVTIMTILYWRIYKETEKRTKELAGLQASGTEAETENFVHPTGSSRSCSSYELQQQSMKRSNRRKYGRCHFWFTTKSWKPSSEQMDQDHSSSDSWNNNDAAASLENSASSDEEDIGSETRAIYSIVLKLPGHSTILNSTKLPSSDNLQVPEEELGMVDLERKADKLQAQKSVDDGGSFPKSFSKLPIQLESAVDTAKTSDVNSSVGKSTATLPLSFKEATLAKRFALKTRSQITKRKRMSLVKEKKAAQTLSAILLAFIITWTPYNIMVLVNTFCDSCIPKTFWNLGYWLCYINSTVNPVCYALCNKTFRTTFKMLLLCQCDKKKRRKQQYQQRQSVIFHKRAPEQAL

Cc1cc(C(=O)N2Cc3cnn(C)c3Nc3ccccc32)ccc1CNC(=O)N1CCC[C@H]1C(=S)N1CCCN(C)CC1 [TC-OT-39, (2S)-N-[[4-[(4,10-Dihydro-1-methylpyrazolo[3,4-b][1,5]benzodiazepin-5(1H)-yl)carbonyl]-2-methylphenyl]methyl]-2-[(hexahydro-4-methyl-1H-1,4-diazepin-1-yl)thioxomethyl]-1-pyrrolidinecarboxamide]
Efficacy (% OXT Response), FLIPR TETRA Ca2+ Release ([1]; Table 1, oxytocin response as 100%): 102% | agonist character at human OXTR ([1]; calcium mobilization / Gq signaling): moderately potent full agonist at the human OXTR; also recorded: efficacy comparable to that of oxytocin for Gq signaling | EC50 [2]: 310 ± 260 nM | Efficacy (% OXT Response), DiscoveRx β-Arrestin ([2]; oxytocin response as 100%): 51 ± 6% | EC50 [3]: 480 nM | agonist character for β-arrestin recruitment ([3]; enzyme fragment complementation assay, CHO cells): reduced efficacy for β-arrestin recruitment; also recorded: only a partial agonist of β-arrestin recruitment | Efficacy (% OXT Response), DiscoveRx Express β-Arrestin ([3]; oxytocin response as 100%, run as single points only): 48% | EC50 (human OXTR): 890 ± 90 nM | Emax (human OXTR; read-out: maximum efficacy, IP3 accumulation): 67 ± 4% | EC50 [4]: 4300 ± 70 nM | efficacy at human Avpr1b ([4]; compared to vasopressin): 74 ± 2% | activation of human Avpr1a ([5]; CHO-V1a): did not activate the human Avpr1a | inverse agonism at Avpr1a [5]: appears to be an inverse agonist at Avpr1a | activation of human Avpr2 [6]: did not activate the human Avpr1a or Avpr2 receptors | response of wild-type CHO cells (wild-type CHO cells): did not induce any response | Ki [7]: > 1000 nM | Ki [8]: > 1000 nM | Ki [9]: > 1000 nM | binding to other human receptors (other human receptors): no significant binding to other human receptors | emergence of sociability at 14 days, TC-OT-39 (BALB/cByJ mice [10]; 30 and 50 mg/kg IP, subchronic, 14 days after final injection): no evidence for the emergence of increased sociability at the 14-day time point | marble burying, BALB/cByJ, 50 mg/kg (BALB/cByJ mice [11]; TC-OT-39 50 mg/kg IP, 50 min before test, F(1,14)=6.18, p=0.0261): comparable decreases in marble burying | sedative-like effects, 75 mg/kg (BALB/cByJ mice [11]; TC-OT-39 75 mg/kg IP, acute, not further tested): overt sedative-like effects | EC50 (OXTR [12]; read-out: EC50, OXTR gene reporter assay): 33 nM | agonist character, OXTR gene reporter assay (OXTR [12]): full agonist | EC50 (OXTR [13]; read-out: EC50, OXTR IP3 accumulation): 667 nM | agonist character, OXTR IP3 accumulation (OXTR [13]): partial agonist | Ki ([14]; read-out: KI at Avpr1a, antagonist): 330 nM | character at Avpr1a [14]: antagonist of the Avpr1a vasopressin receptor | Ki [15]: > 1000 nM

Cc1cc(C(=O)N2Cc3cnn(C)c3Nc3ccccc32)ccc1CNC(=O)N1CCN(Cc2cc(O)cc(O)c2)CC1 [WAY-267464]
anxiolytic-like effects, rodent assays (rodents): comparable anxiolytic-like effects in rodent assays

Asn-Cyt-Pro-Leu-Gly-NH2 [OT(5-9)]
sociability, OT(5-9) 1 mg/kg (BALB/cByJ mice [10]; 1 mg/kg IP, subchronic, Supplemental Fig. 4D, E): failed to reverse social deficits | sociability, OT(5-9) 2.0 mg/kg (BALB/cByJ mice [10]; 2.0 mg/kg IP, subchronic, Supplemental Fig. 5): failed to reveal prosocial efficacy | digging responses in marble-burying assay, oxytocin metabolites (BALB/cByJ mice [11]; 50 min before test): neither OT(4-9) nor OT(5-9) altered digging responses in the marble-burying assay | potency on avoidance learning relative to oxytocin (rats [16]): greater potency than oxytocin itself on specific aspects of avoidance learning in rats

pGlu-Asn-Cyt-Pro-Leu-Gly-NH2 [OT(4-9)]
entries, OT(4-9) 1.0 mg/kg (BALB/cByJ mice [10]; 1.0 mg/kg IP, subchronic, n=8): without changing entries during the test | proximity to stranger mouse, OT(4-9) 1.0 mg/kg (BALB/cByJ mice [10]; 1.0 mg/kg IP, subchronic, n=8, main effect of side F(1,14)=6.84, p=0.0204): significant social preference for proximity to the stranger mouse | time in side with stranger mouse, OT(4-9) 2.0 mg/kg, 24 hr and 12 days (BALB/cByJ mice [10]; 2.0 mg/kg IP, subchronic, 24-hr test F(1,21)=7.3, p=0.0133, 12-day test F(1,21)=4.85, p=0.039, n=8): significant preference for spending more time in the side with the stranger mouse at both time points | proximity to stranger mouse, OT(4-9) 2.0 mg/kg, 12 days (BALB/cByJ mice [10]; 2.0 mg/kg IP, subchronic, 12 days, F(1,21)=7.02, p=0.015, n=8): significant preference for proximity to the stranger mouse 12 days following the final injection | prosocial efficacy compared with oxytocin (BALB/cByJ mice [10]; OT(4-9) 2.0 mg/kg vs oxytocin 1.0 mg/kg, subchronic): prosocial efficacy similar to oxytocin | dose dependence of sociability, OT(4-9) (BALB/cByJ mice [10]; subchronic IP): only the higher doses (1.0 and 2.0 mg/kg) leading to increased sociability | entries during 3-chamber test (discussion) (BALB/cByJ mice [10]; subchronic IP): neither oxytocin nor OT(4-9) led to alterations in entries during the 3-chamber test | digging responses in marble-burying assay, oxytocin metabolites (BALB/cByJ mice [11]; 50 min before test): neither OT(4-9) nor OT(5-9) altered digging responses in the marble-burying assay | activity or exploration in open field, OT(4-9) (BALB/cByJ mice [17]; OT(4-9) 2.0 mg/kg IP immediately before 2-hr test, versus vehicle, n=9): no significant effects on activity or exploration in the open field | anxiolytic effects, acute OT(4-9) (BALB/cByJ mice [17]; acute, marble-burying assay and open field tests): lacked anxiolytic effects in the marble-burying assay and open field tests | potency on avoidance learning relative to oxytocin (rats [16]): greater potency than oxytocin itself on specific aspects of avoidance learning in rats | social recognition (rats [18]): oxytocin-like effects on social recognition in rats, dependent on dose
